Tests used:
[1] = tested on: Aβ42 produced and secreted into the medium of human neuroblastoma SKNBE2 cells; test: Cellular αlisa assay in SKNBE2 cells, Aβ42; assay type: cell-based; conditions: SKNBE2 cells expressing hAPP695, 18 hours incubation; for IC50: Homo sapiens, SKNBE2, 18 h, read-out: Cellular αlisa assay in SKNBE2 cells Aβ42 pIC50 (converted)
Method: (§1) Cellular αlisa Assay in SKNBE2 Cells
(§2) In two αlisa assays the levels of Aβtotal and Aβ42 produced and secreted into the medium of human neuroblastoma SKNBE2 cells are quantified. The assay is based on the human neuroblastoma SKNBE2 expressing the wild type Amyloid Precursor Protein (hAPP695). The compounds are diluted and added to these cells, incubated for 18 hours and then measurements of Aβ42 and Aβtotal are taken. Aβtotal and Aβ42 are measured by sandwich αlisa. αlisa is a sandwich assay using biotinylated antibody AbN/25 attached to streptavidin coated beads and antibody Ab4G8 or cAb42/26 conjugated acceptor beads for the detection of Aβtotal and Aβ42 respectively. In the presence of Aβtotal or Aβ42, the beads come into close proximity. The excitation of the Donor beads provokes the release of singlet oxygen molecules that triggers a cascade of energy transfer in the Acceptor beads, resulting in light emission. Light emission is measured after 1 hour incubation (excitation at […] and emission at 615 nm).
(§3) A best-fit curve is fitted by a minimum sum of squares method to the plot of % Controlmin versus compound concentration.

[2] = molecular target: recombinant BACE1 protein (Homo sapiens, UniProt P56817); test: Biochemical FRET based assay; conditions: recombinant BACE1 1 μg/ml, 120 min, pH 5.0; for IC50: read-out: Biochemical FRET based assay pIC50 (converted)
Text: Biochemical FRET Based Assay
This assay is a Fluorescence Resonance Energy Transfer Assay (FRET) based assay. The substrate for this assay is an APP derived 13 amino acids peptide that contains the ‘Swedish’ Lys-Met/Asn-Leu mutation of the amyloid precursor protein (APP) β-secretase cleavage site. This substrate also contains two fluorophores: (7-methoxycoumarin-4-yl)acetic acid (Mca) is a fluorescent donor with excitation wavelength at 320 nm and emission at 405 nm and 2,4-Dinitrophenyl (Dnp) is a proprietary quencher acceptor. […] Upon cleavage by BACE1, the fluorophore Mca is separated from the quenching group Dnp, restoring the full fluorescence yield of the donor. The increase in fluorescence is linearly related to the rate of proteolysis (Koike H et al. J. Biochem. 1999, 126, 235-242). Briefly in a 384-well format recombinant BACE1 protein in a final concentration of 1 μg/ml is incubated for 120 min at room temperature with 10 μm substrate in incubation buffer (40 mM Citrate buffer pH 5.0, 0.04% PEG, 4% DMSO) in the absence or presence of compound. Next the amount of proteolysis is directly measured by fluorescence measurement at T=0 and T=120 (excitation at 320 nm and emission at 405 nm).

[3] = tested on: Aβtotal produced and secreted into the medium of human neuroblastoma SKNBE2 cells; test: Cellular αlisa assay in SKNBE2 cells, Aβtotal; assay type: cell-based; conditions: SKNBE2 cells expressing hAPP695, 18 hours incubation; for IC50: Homo sapiens, SKNBE2, 18 h, read-out: Cellular αlisa assay in SKNBE2 cells Aβtotal pIC50 (converted)
Method: as §1, §2, §3

[4] = tested on: brain levels of soluble Aβ42; test: In vivo efficacy: brain Aβ42 lowering (ELISA); set-up: species or system mouse
Text: (§4) To determine whether acute administration of an Aβ42 peptide lowering agent would reduce Aβ peptide levels in vivo, non-transgenic rodents, e.g. mice or rats were used. Animals treated with the Aβ peptide lowering agent were examined and compared to those untreated or treated with vehicle and brain levels of soluble Aβ42 and total Aβ were quantitated by standard techniques, for example, using ELISA. Treatment periods varied from hours (h) to days and were adjusted based on the results of the Aβ42 lowering once a time course of onset of effect could be established.
(§5) A typical protocol for measuring Aβ42 lowering in vivo is shown but it is only one of many variations that could be used to optimize the levels of detectable Aβ. For example, Aβ peptide lowering compounds were formulated in 20% hydroxypropyl β cyclodextrin. The Aβ peptide lowering agents were administered as a single oral dose (p.o.) or a single subcutaneous dose (s.c.) to overnight fasted animals. After a certain time, usually 2 or 4 h (as indicated in Table 7), the animals were sacrificed and Aβ42 levels were analysed.
(§6) Blood was collected by decapitation and exsanguinations in EDTA-treated collection tubes. Blood was centrifuged at 1900 g for 10 minutes (min) at 4° C. and the plasma recovered and flash frozen for later analysis. The brain was removed from the cranium and hindbrain. The cerebellum was removed and the left and right hemisphere were separated. The left hemisphere was stored at −18° C. for quantitative analysis of test compound levels. The right hemisphere was rinsed with phosphate-buffered saline (PBS) buffer and immediately frozen on dry ice and stored at −80° C. until homogenization for biochemical assays.
(§7) Mouse brains from non-transgenic animals were resuspended in 8 volumes of 0.4% DEA (diethylamine)/50 mM NaCl containing protease inhibitors (Roche-11873580001 or 04693159001) per gram of tissue, e.g. for 0.158 g brain, add 1.264 ml of 0.4% DEA. All samples were homogenized in the FastPrep-24 system (MP Biomedicals) using lysing matrix D (MPBio #6913-100) at 6 m/s for 20 seconds. Homogenates were centrifuged at 221.300×g for 50 min. The resulting high speed supernatants were then transferred to fresh eppendorf tubes. Nine parts of supernatant were neutralized with 1 part 0.5 M Tris-HCl pH 6.8 and used to quantify Aβtotal and Aβ42.
(§8) To quantify the amount of Aβtotal and Aβ42 in the soluble fraction of the brain homogenates, Enzyme-Linked-Immunosorbent-Assays were used. Briefly, the standards (a dilution of synthetic Aβ1-40 and […], Bachem) were prepared in 1.5 ml Eppendorf tube in Ultraculture, with final concentrations ranging from 10000 to 0.3 pg/ml. The samples and standards were co-incubated with HRPO-labelled N-terminal antibody for Aβ42 detection and with the biotinylated mid-domain antibody 4G8 for Aβtotal detection. 50 μl of conjugate/sample or conjugate/standards mixtures were then added to the antibody-coated plate (the capture antibodies selectively recognize the C-terminal end of Aβ42, antibody JRF/cAβ42/26, for Aβ42 detection and the N-terminus of Aβ, antibody JRF/rAβ/2, for Aβtotal detection). The plate was allowed to incubate overnight at 4° C. in order to allow formation of the antibody-amyloid complex. Following this incubation and subsequent wash steps the ELISA for Aβ42 quantification was finished by addition of Quanta Blu fluorogenic peroxidase substrate according to the manufacturer's instructions (Pierce Corp., Rockford, Il.). A reading was performed after 10 to 15 min (excitation 320 nm/emission 420 nm).
In this model at least 20% Aβ42 lowering compared to untreated animals would be advantageous.

brain levels of total Aβ = test: In vivo efficacy: brain Aβtotal lowering (ELISA); set-up: species or system mouse
Text: as §4, §5, §6, §7, §8
For Aβtotal detection, a Streptavidine-Peroxidase-Conjugate was added, followed 60 min later by an additional wash step and addition of Quanta Blu fluorogenic peroxidase substrate according to the manufacturer's instructions (Pierce Corp., Rockford, Il.). A reading was performed after 10 to 15 min (excitation 320 nm/emission 420 nm).

[5] = 30 mg/kg p.o., 4 h. after administration
[6] = 5 mg/kg p.o., 4 h. after administration
[7] = 100 mg/kg s.c., 4 h. after administration
[8] = 30 mg/kg p.o., 2 h after administration
[9] = 10 mg/kg p.o., 4 h. after administration

Sequence of recombinant BACE1 protein (P56817 46-501): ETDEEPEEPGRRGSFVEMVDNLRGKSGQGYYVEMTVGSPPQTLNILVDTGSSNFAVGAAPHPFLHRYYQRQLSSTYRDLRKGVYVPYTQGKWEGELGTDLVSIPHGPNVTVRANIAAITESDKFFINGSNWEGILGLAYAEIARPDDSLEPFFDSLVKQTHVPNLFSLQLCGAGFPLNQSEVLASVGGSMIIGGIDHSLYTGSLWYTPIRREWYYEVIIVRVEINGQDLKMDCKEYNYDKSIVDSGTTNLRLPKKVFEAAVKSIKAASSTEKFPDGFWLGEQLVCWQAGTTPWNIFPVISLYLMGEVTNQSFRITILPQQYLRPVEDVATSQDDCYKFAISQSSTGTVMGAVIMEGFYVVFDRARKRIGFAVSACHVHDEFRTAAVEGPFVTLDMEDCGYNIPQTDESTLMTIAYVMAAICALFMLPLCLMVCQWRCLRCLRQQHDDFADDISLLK

Row | SMILES | Cellular αlisa assay in SKNBE2 cells Aβ42 pIC50 [1] | IC50 [2] [nM] | Cellular αlisa assay in SKNBE2 cells Aβtotal pIC50 [3] | IC50 [1] [nM] | IC50 [3] [nM] | Aβ42 (% Ctrl)_Mean [4, 9] [% Ctrl] | Aβtotal (% Ctrl)_Mean (brain levels of total Aβ; [9]) [% Ctrl] | other results
1 | CC1(c2cccc(NC(=O)c3ncc(Cl)cc3Cl)c2)Cn2nc(C(F)(F)F)cc2C(N)=N1 (single isomer, unassigned) [Compound 11, (R*)-3,5-dichloro-pyridine-2-carboxylic acid [3-(4-amino-6-methyl-2-trifluoromethyl-6,7-dihydro-pyrazolo[1,5-a]pyrazin-6-yl)-phenyl]-amide] | 7.94 | 28.2 | 8.01 | – | – | – | – | Aβ42 (% Ctrl)_Mean [4, 5]: 89 % Ctrl; Aβtotal (% Ctrl)_Mean (brain levels of total Aβ; [5]): 84 % Ctrl
2 | C[C@@]1(c2cc(NC(=O)c3ccc(F)cn3)ccc2F)Cn2nc(C#N)cc2C(N)=N1 [Compound 24, (R)-5-fluoro-pyridine-2-carboxylic acid [3-(4-amino-2-cyano-6-methyl-6,7-dihydro-pyrazolo[1,5-a]pyrazin-6-yl)-4-fluoro-phenyl]-amide] | – | 32.4 | – | 3.31 | 3.89 | – | – | Aβ42 (% Ctrl)_Mean [4, 6]: 66 % Ctrl; Aβ42 (% Ctrl)_Mean [4, 5]: 16 % Ctrl; Aβtotal (% Ctrl)_Mean (brain levels of total Aβ; [6]): 59 % Ctrl; Aβtotal (% Ctrl)_Mean (brain levels of total Aβ; [5]): 31 % Ctrl
3 | COc1cnc(C(=O)Nc2ccc(F)c([C@]3(C)Cn4nc(C#N)cc4C(N)=N3)c2)cn1 [Compound 23, (R)-5-methoxy-pyrazine-2-carboxylic acid [3-(4-amino-2-cyano-6-methyl-6,7-dihydro-pyrazolo[1,5-a]pyrazin-6-yl)-4-fluoro-phenyl]-amide] | – | 39.8 | – | 1.78 | 1.95 | 45 | 39 | –
4 | C[C@@]1(c2cc(NC(=O)c3ccc(F)cn3)ccc2F)Cn2nc(C(F)F)cc2C(N)=N1 [Compound 27, (R)-5-fluoro-pyridine-2-carboxylic acid [3-(4-amino-2-difluoromethyl-6-methyl-6,7-dihydro-pyrazolo[1,5-a]pyrazin-6-yl)-4-fluoro-phenyl]-amide] | – | 60.3 | – | 7.08 | 6.76 | 55 | 61 | –

Further lines, with some results ahead:

Row | Cellular αlisa assay in SKNBE2 cells Aβ42 pIC50 [1] | IC50 [2] [nM] | Cellular αlisa assay in SKNBE2 cells Aβtotal pIC50 [3] | IC50 [1] [nM] | IC50 [3] [nM] | SMILES | Aβ42 (% Ctrl)_Mean [4, 9] [% Ctrl] | Aβtotal (% Ctrl)_Mean (brain levels of total Aβ; [9]) [% Ctrl] | other results
5 | 8.09 | – | 8.14 | – | – | CC1(c2cc(NC(=O)c3ccc(F)cn3)ccc2F)Cn2ncc(F)c2C(N)=N1 (stereo not shown) [Compound 33] | – | – | Biochemical FRET based assay pIC50 [2]: 7.19; Aβ42 (% Ctrl)_Mean [4, 7]: 49 % Ctrl; Aβtotal (% Ctrl)_Mean (brain levels of total Aβ; [7]): 20 % Ctrl
6 | 7.76 | – | 7.84 | – | – | COc1cnc(C(=O)Nc2cccc(C3(C)Cn4nc(C(F)(F)F)cc4C(N)=N3)c2)cn1 (single isomer, unassigned) [Compound 32] | – | – | Biochemical FRET based assay pIC50 [2]: 7.20; Aβ42 (% Ctrl)_Mean [4, 8]: 53 % Ctrl; Aβtotal (% Ctrl)_Mean (brain levels of total Aβ; [8]): 58 % Ctrl
7 | – | 81.3 | – | 16.2 | 17 | COc1cnc(C(=O)Nc2ccc(F)c([C@]3(C)Cn4nc(C)c(F)c4C(N)=N3)c2)cn1 [Compound 29, (R)-5-methoxy-pyrazine-2-carboxylic acid [3-(4-amino-3-fluoro-2,6-dimethyl-6,7-dihydro-pyrazolo[1,5-a]pyrazin-6-yl)-4-fluoro-phenyl]-amide] | 59 | 58 | –
